Results taken from patent US20250289789A1, “REVERSIBLE LYSINE COVALENT MODIFIERS OF CDK2 AND USES THEREOF” (Terremoto Biosciences, Inc., priority 2023, published 2025).
Like-named read-outs stand apart in the source and are kept apart here.

Experiments:
Format in all cases: cell-based
[1] = molecular target: T1, CDK1-NanoLuc fusion with CCNB1 in 293T or 293 cells (Homo sapiens, UniProt P06493); assay: NanoBRET Target Engagement (TE) Intracellular Kinase Assay, CDK1/CCNB1; conditions: NanoBRET TE intracellular kinase assay, 2-hour incubation, read-out: NanoBRET-CDK1/B1 IC50
T1 construct: host or cells: 293T (ATCC CRL-3216) or 293 (ATCC CRL-1573)
T1 sequence (P06493 whole entry, the tested form may be a part): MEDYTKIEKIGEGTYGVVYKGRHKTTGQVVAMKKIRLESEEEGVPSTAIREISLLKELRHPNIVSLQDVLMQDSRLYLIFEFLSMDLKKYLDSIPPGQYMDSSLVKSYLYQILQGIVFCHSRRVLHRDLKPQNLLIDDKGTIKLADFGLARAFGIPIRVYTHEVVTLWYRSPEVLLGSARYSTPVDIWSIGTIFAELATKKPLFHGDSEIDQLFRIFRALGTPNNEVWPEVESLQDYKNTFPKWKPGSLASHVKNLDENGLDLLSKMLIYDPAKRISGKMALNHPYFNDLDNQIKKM
T1 sequence (P14635 whole entry partner, the tested form may be a part): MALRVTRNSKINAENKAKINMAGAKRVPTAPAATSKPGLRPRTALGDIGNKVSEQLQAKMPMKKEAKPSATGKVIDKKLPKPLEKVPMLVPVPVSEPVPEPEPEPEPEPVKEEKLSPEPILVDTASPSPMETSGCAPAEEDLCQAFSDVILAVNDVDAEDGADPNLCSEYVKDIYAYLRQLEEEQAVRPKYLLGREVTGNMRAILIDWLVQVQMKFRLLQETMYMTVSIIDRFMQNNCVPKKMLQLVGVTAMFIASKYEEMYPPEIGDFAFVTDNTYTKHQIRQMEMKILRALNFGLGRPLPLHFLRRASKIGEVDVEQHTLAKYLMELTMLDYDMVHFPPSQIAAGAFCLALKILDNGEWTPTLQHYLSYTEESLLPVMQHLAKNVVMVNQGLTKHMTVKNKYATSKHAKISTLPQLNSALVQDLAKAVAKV
Experimental: Inhibitory effects of compounds were measured in NanoBRET TE Intracellular Kinase Assay. 293T (ATCC; CRL-3216) or 293 (ATCC; CRL-1573) cell lines were maintained in 90% DMEM and 10% fetal bovine serum at 37° C., 5% CO2, and 95% relative humidity. Cells were trypsinized and resuspended in assay media (99% Opti-MEM I Reduced Serum Medium, no phenol red, and 1% fetal bovine serum). Cells were co-transfected with 1 μg/mL of CDK-NanoLuc Fusion Vector (Promega; NV2701 for CDK1, NV2781 for CDK2, NV2811 for CDK4, NV2841 for CDK6) and 1 μg/mL of the corresponding Cyclin Expression Vector (Promega; NV2601 for CCNB1, NV2641 for CCNE1, NV2621 for CCND1, NV2631 for CCND3) using FuGENE HD Transfection Reagent (Promega; E2311). 40 uL/well of cells with transfection mixture were seeded in 384-well plates at 1.25×10^5 to 2×10^5 cells/mL and incubated for 24 hours at 37° C., 5% CO2, and 95% relative humidity. On the next day, 100 nL of 100 μM NanoBRET Tracer K-10 (Promega; N2640) and 40 nL of 1000× test compounds prepared in DMSO were added to the cells in each well of 384-well plates for a 2-hour incubation at 37° C., 5% CO2, and 95% relative humidity. 20 uL/well of 3× Intracellular TE Nano-Glo Substrate/Inhibitor (Promega; N2162) were added to 384-well plates and incubated for 3 minutes at room temperature. NanoBRET signals (donor emission wavelength at 450 nm, acceptor emission wavelength at 610 nm) were measured using Envision plate reader (PerkinElmer). NanoBRET ratio was calculated by: BRET Ratio=raw signal for acceptor/raw signal for donor. Dose response curve normalized to DMSO control was plotted using four-parameter logistic model for IC50 calculation.

[2] = molecular target: T2, CDK2-NanoLuc fusion with CCNE1 in 293T or 293 cells (Homo sapiens, UniProt P24941); assay: NanoBRET Target Engagement (TE) Intracellular Kinase Assay, CDK2/CCNE1; conditions: NanoBRET TE intracellular kinase assay, 2-hour incubation, read-out: NanoBRET-CDK2/E1 IC50
T2 construct: host or cells: 293T (ATCC CRL-3216) or 293 (ATCC CRL-1573)

[3] = molecular target: T3, CDK4-NanoLuc fusion with CCND1 in 293T or 293 cells (Homo sapiens, UniProt P11802); assay: NanoBRET Target Engagement (TE) Intracellular Kinase Assay, CDK4/CCND1; conditions: NanoBRET TE intracellular kinase assay, 2-hour incubation, read-out: NanoBRET-CDK4/D1 IC50
T3 construct: host or cells: 293T (ATCC CRL-3216) or 293 (ATCC CRL-1573)
T3 sequence (P11802 whole entry, the tested form may be a part): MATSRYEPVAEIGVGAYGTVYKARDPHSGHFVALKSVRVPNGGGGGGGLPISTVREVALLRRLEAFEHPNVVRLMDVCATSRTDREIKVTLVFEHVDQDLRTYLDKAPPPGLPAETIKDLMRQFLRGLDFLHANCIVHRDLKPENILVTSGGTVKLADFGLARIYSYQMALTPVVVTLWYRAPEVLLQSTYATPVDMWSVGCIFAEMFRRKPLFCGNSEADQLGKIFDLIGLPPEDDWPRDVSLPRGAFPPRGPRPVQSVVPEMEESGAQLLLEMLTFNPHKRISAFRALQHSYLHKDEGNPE
T3 sequence (P24385 whole entry partner, the tested form may be a part): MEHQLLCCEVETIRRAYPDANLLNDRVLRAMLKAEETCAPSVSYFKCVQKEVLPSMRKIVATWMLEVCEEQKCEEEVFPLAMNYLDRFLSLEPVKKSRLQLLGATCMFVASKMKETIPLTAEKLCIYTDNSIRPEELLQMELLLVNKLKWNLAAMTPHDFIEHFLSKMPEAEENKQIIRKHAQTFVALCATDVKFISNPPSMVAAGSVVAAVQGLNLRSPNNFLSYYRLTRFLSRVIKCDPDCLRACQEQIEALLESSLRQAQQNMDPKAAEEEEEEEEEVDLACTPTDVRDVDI

[4] = tested on: Phospho-Rb Ser807/811 in OVCAR3 cells; assay: OVCAR3 Phospho-Rb Ser807/811 HTRF assay; conditions: Homo sapiens, read-out: pRb-OVCAR3 IC50
Experimental: Cells were trypsinized and resuspended in 1 mM hydroxyurea (Sigma; H8627), 90% RPMI and 10% fetal bovine serum. […] Dose response curve normalized to DMSO control was plotted using four-parameter logistic model for IC50 calculation.

[5] = OVCAR-3, 1 h, OVCAR3 cells, Phospho-Rb Ser807/811 HTRF, 1 hour incubation
[6] = OVCAR-3, OVCAR3 cells, Phospho-Rb Ser807/811 HTRF, 1 hour incubation

`CC(C)NC(=O)O[C@@H]1CC[C@H](c2cc(NC(=O)[C@H]3C[C@@H](Oc4cccc(O)c4C=O)C3)n[nH]2)C1` (single isomer, unassigned) [Compound 94] was tested, and the IC50 [1] was 165 nM, the IC50 [2] was 9.73 nM and the IC50 [3] was 1310 nM. For the same molecule, the IC50 [4, 5] was 1440 nM.

Molecule `CC(C)NC(=O)O[C@@H]1CC[C@H](c2cc(NC(=O)C3C[C@H]3c3cccc(O)c3C=O)n[nH]2)C1` (stereo in doubt) [Compound 9, (1R,3S)-3-{5-[(1R,2R)-2-(2-formyl-3-hydroxyphenyl)cyclopropaneamido]-2H-pyrazol-3-yl}cyclopentyl N-isopropylcarbamate] has an IC50 [1] of 50.3 nM, an IC50 [2] of 29.2 nM and an IC50 [3] of 4700 nM. For the same molecule, the IC50 [4, 5] was 449 nM.

With `COCC1(NC(=O)O[C@@H]2CC[C@H](c3cc(NC(=O)COc4cc(OC)cc(O)c4C=O)n[nH]3)C2)CCC1` (stereo in doubt) [Compound 198] the IC50 [1] was 7 nM, the IC50 [2] was 1.92 nM and the IC50 [3] was 3220 nM. The IC50 [4, 5] was 38.7 nM.

`CC(C)NC(=O)O[C@@H]1CC[C@H](c2cc(NC(=O)c3ccc(C=O)c(O)c3)n[nH]2)C1` [Compound 2, (1R,3S)-3-[5-(4-formyl-3-hydroxybenzamido)-2H-pyrazol-3-yl]cyclopentyl N-isopropylcarbamate; trifluoroacetic acid] showed an IC50 [1] of 3.45 nM, an IC50 [2] of 3.82 nM and an IC50 [3] of 89.5 nM. It also gave an IC50 [4, 5] of 68 nM.

`CC(C)NC(=O)O[C@@H]1CC[C@H](c2cc(NC(=O)c3ccc(O)c(C=O)c3)n[nH]2)C1` [Compound 3, (1R,3S)-3-(3-(3-formyl-4-hydroxybenzamido)-1H-pyrazol-5-yl)cyclopentyl isopropylcarbamate trifluoroacetic acid] was tested, and the IC50 [1] was 32.8 nM, the IC50 [2] was 9.48 nM and the IC50 [3] was 255 nM. The IC50 [4, 5] was 129 nM.

`CC(C)NC(=O)O[C@@H]1CC[C@H](c2cc(NC(=O)Cc3ccc(C=O)c(O)c3)n[nH]2)C1` [Compound 4, (1R,3S)-3-{5-[2-(4-formyl-3-hydroxyphenyl)acetamido]-2H-pyrazol-3-yl}cyclopentyl N-isopropylcarbamate] gave an IC50 [1] of 7.08 nM, an IC50 [2] of 5.47 nM and an IC50 [3] of 6.91 nM. For the same molecule, the IC50 [4, 5] was 68.8 nM.

Molecule `CC(C)NC(=O)O[C@@H]1CC[C@H](c2cc(NC(=O)Cc3ccc(O)c(C=O)c3)n[nH]2)C1` [Compound 5, (1R,3S)-3-{5-[2-(3-formyl-4-hydroxyphenyl)acetamido]-2H-pyrazol-3-yl}cyclopentyl N-isopropylcarbamate] has an IC50 [1] of 5.54 nM, an IC50 [2] of 6.58 nM and an IC50 [3] of 52.6 nM. The IC50 ([4]; OVCAR-3, 1 h) was 187 nM.

`CC(C)NC(=O)O[C@@H]1CC[C@H](c2cc(NC(=O)CCc3ccc(O)c(C=O)c3)n[nH]2)C1` [Compound 6, (1R,3S)-3-{5-[3-(3-formyl-4-hydroxyphenyl)propan-amido]-2H-pyrazol-3-yl}cyclopentyl N-isopropylcarbamate; trifluoroacetic acid] was tested, and the IC50 [1] was 113 nM, the IC50 [2] was 12.5 nM and the IC50 [3] was 397 nM. The IC50 [4, 6] was 618 nM.

Work on `CC(C)NC(=O)O[C@@H]1CC[C@H](c2cc(NC(=O)CCc3cccc(O)c3C=O)n[nH]2)C1` [Compound 7, (1R,3S)-3-(3-(3-(2-formyl-3-hydroxyphenyl)propanamido)-1H-pyrazol-5-yl)cyclopentyl isopropylcarbamate trifuoroacetic acid] yielded an IC50 [1] of 275 nM, an IC50 [2] of 11.4 nM and an IC50 [3] of 1850 nM. It also gave an IC50 ([4]; OVCAR-3, 1 h) of 1500 nM.

For `CC(C)NC(=O)O[C@@H]1CC[C@H](c2cc(NC(=O)c3cnn(-c4cccc(O)c4C=O)c3)n[nH]2)C1` [Compound 8, (1R,3S)-3-{5-[1-(2-formyl-3-hydroxyphenyl)pyrazole-4-amido]-2H-pyrazol-3-yl}cyclopentyl N-isopropylcarbamate; trifluoroacetic acid], the IC50 [1] was 73.5 nM, the IC50 [2] was 24.9 nM and the IC50 [3] was 5460 nM. The IC50 [4, 6] was 880 nM.

Molecule `Cc1cc(C(=O)Nc2cc([C@H]3CC[C@@H](OC(=O)NC(C)C)C3)[nH]n2)cc(C=O)c1O` [Compound 15, (1R,3S)-3-(3-(3-formyl-4-hydroxy-5-methylbenzamido)-1H-pyrazol-5-yl)cyclopentyl isopropylcarbamate trifluoroacetic acid] has an IC50 [1] of 25.3 nM, an IC50 [2] of 2.65 nM and an IC50 [3] of 1820 nM. The IC50 [4, 5] was 112 nM.

With `CC(C)NC(=O)O[C@@H]1CC[C@H](c2cc(NC(=O)c3cc(Oc4cccc(O)c4C=O)nn3C)n[nH]2)C1` [Compound 19, (1R,3S)-3-{5-[5-(2-formyl-3-hydroxyphenoxy)-2-methylpyrazole-3-amido]-2H-pyrazol-3-yl}cyclopentyl N-isopropylcarbamate] the IC50 [1] was 78 nM, the IC50 [2] was 16.4 nM and the IC50 [3] was 2420 nM. For the same molecule, the IC50 [4, 5] was 941 nM.

`CC(C)NC(=O)O[C@@H]1CC[C@H](c2cc(NC(=O)c3cc(C(=O)Nc4cccc(O)c4C=O)nn3C)n[nH]2)C1` [Compound 20, (1R,3S)-3-(5-{5-[(2-formyl-3-hydroxyphenyl)carbamoyl]-2-methylpyrazole-3-amido}-2H-pyrazol-3-yl)cyclopentyl N-isopropylcarbamate; trifluoroacetic acid] showed an IC50 [1] of 147 nM, an IC50 [2] of 10.5 nM and an IC50 [3] of 1210 nM. The IC50 [4, 5] was 915 nM.

For `CC(C)NC(=O)O[C@@H]1CC[C@H](c2cc(NC(=O)c3cc(C(=O)Nc4ccccc4C=O)nn3C)n[nH]2)C1` [Compound 21, (1R,3S)-3-(5-{5-[(2-formylphenyl)carbamoyl]-2-methylpyrazole-3-amido}-2H-pyrazol-3-yl)cyclopentyl N-isopropylcarbamate; trifluoroacetic acid], the IC50 [1] was 290 nM, the IC50 [2] was 5.53 nM and the IC50 [3] was 3900 nM. The IC50 [4, 5] was 2120 nM.

`CC(C)NC(=O)O[C@@H]1CC[C@H](c2cc(Nc3cc(COc4cccc(O)c4C=O)ccn3)n[nH]2)C1` [Compound 24, (1R,3S)-3-(3-((4-((2-formyl-3-hydroxyphenoxy)methyl)pyridin-2-yl)amino)-1H-pyrazol-5-yl)cyclopentyl isopropylcarbamate] was tested, and the IC50 [1] was 516 nM, the IC50 [2] was 18.7 nM and the IC50 [3] was 4880 nM. It also gave an IC50 [4, 5] of 3760 nM.

For `CC(C)NC(=O)O[C@@H]1CC[C@H](c2cc(Nc3cc(OCc4cccc(O)c4C=O)ccn3)n[nH]2)C1` [Compound 25, (1R,3S)-3-[5-({4-[(2-formyl-3-hydroxyphenyl)methoxy]pyridine-2-yl}amino)-2H-pyrazol-3-yl]cyclopentyl N-isopropylcarbamate], the IC50 [1] was 299 nM, the IC50 [2] was 9.94 nM and the IC50 [3] was 1210 nM. For the same molecule, the IC50 [4, 5] was 1330 nM.

`CC(C)NC(=O)O[C@@H]1CC[C@H](c2cc(NC(=O)c3cc(COc4cccc(O)c4C=O)nn3C)n[nH]2)C1` [Compound 27, (1R,3S)-3-{5-[5-(2-formyl-3-hydroxyphenoxymethyl)-2-methylpyrazole-3-amido]-2H-pyrazol-3-yl}cyclopentyl N-isopropylcarbamate] showed an IC50 [1] of 17.7 nM, an IC50 [2] of 5.24 nM and an IC50 [3] of 112 nM. For the same molecule, the IC50 [4, 5] was 95.2 nM.

For `CC(C)NC(=O)O[C@@H]1CC[C@H](c2cc(NC(=O)c3cc(OCc4cccc(O)c4C=O)nn3C)n[nH]2)C1` [Compound 28, (1R,3S)-3-(3-(3-((2-formyl-3-hydroxybenzyl)oxy)-1-methyl-1H-pyrazole-5-carboxamido)-1H-pyrazol-5-yl)cyclopentyl isopropylcarbamate], the IC50 [1] was 151 nM, the IC50 [2] was 10.4 nM and the IC50 [3] was 1190 nM. For the same molecule, the IC50 [4, 5] was 1820 nM.

Work on `CC(C)NC(=O)O[C@@H]1CC[C@H](c2cc(NC(=O)c3cc(C#Cc4cccc(O)c4C=O)nn3C)n[nH]2)C1` [Compound 29, (1R,3S)-3-(5-{5-[2-(2-formyl-3-hydroxyphenyl)ethynyl]-2-methylpyrazole-3-amido}-2H-pyrazol-3-yl)cyclopentyl N-isopropylcarbamate] yielded an IC50 [1] of 494 nM, an IC50 [2] of 18.6 nM and an IC50 [3] of 1550 nM. The IC50 [4, 5] was 2150 nM.
